Assay results from ChEMBL document CHEMBL1201862, “PubChem BioAssay data set” (2004).
The source made the active and inactive calls.

Columns and labels:
[1] = molecular target: T1, Calpain-2 catalytic subunit (Sus scrofa, UniProt P43367); assay: m-calpain protease blockers, concentration series – biochemical, fluorogenic peptide substrate, dose response (AID 1420); assay type: functional
T1 sequence (P43367 whole entry): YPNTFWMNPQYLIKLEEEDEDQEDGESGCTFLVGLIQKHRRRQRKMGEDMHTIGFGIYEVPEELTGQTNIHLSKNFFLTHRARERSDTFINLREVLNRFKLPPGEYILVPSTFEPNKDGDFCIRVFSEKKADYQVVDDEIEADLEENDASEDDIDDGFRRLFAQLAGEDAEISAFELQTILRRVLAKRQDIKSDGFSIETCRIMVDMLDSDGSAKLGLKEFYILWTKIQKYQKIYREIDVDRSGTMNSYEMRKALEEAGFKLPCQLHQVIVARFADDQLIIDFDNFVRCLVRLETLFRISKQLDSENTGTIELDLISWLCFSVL

Protein RecA = molecular target: T2, Protein RecA (Mycobacterium tuberculosis, UniProt P9WHJ3); assay: Fluorescence Cell-Free Homogeneous Dose Retest to Identify Inhibitors of RecA-Intein Splicing Activity. [Related pubchem assays (depositor defined):AID2097, AID2223, AID489010, AID492950]; assay type: functional
T2 sequence (P9WHJ3 whole entry): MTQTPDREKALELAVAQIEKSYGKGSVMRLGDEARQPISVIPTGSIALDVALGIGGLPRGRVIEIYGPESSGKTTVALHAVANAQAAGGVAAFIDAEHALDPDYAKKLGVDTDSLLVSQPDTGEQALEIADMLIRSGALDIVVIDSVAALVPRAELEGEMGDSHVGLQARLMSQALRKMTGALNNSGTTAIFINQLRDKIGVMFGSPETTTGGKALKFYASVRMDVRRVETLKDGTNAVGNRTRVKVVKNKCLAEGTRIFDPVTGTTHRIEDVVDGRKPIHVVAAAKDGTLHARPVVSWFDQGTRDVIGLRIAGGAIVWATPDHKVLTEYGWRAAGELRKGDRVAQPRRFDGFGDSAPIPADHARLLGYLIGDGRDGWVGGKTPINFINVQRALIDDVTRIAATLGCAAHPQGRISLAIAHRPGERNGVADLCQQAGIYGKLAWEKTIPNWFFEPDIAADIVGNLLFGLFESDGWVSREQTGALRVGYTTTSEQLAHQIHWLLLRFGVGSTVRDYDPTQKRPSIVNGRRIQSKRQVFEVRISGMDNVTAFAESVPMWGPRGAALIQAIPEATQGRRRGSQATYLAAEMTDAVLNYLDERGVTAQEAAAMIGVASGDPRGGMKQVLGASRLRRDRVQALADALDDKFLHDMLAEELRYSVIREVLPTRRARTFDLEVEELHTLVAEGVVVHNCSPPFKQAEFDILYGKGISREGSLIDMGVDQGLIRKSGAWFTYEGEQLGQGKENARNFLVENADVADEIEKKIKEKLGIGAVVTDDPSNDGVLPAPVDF

INS1 = assay: INS-1E survival protection against cytokine death – cell-based, luminescence, retest, dose response (AID 449756); assay type: functional; conditions: Rattus norvegicus;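 further: cell death triggered by IL-1 beta plus TNF-alpha plus IFN-gamma mixture; protective hits raise ATP signal compared with cytokine alone wells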
[2] = molecular target: T3, Sentrin-specific protease 7 (Homo sapiens, UniProt Q9BQF6); assay type: functional;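 further: Luminescence-based dose-response confirmation of ultra-high-throughput screening hits, measuring inhibition of SENP7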
T3 sequence (Q9BQF6 whole entry): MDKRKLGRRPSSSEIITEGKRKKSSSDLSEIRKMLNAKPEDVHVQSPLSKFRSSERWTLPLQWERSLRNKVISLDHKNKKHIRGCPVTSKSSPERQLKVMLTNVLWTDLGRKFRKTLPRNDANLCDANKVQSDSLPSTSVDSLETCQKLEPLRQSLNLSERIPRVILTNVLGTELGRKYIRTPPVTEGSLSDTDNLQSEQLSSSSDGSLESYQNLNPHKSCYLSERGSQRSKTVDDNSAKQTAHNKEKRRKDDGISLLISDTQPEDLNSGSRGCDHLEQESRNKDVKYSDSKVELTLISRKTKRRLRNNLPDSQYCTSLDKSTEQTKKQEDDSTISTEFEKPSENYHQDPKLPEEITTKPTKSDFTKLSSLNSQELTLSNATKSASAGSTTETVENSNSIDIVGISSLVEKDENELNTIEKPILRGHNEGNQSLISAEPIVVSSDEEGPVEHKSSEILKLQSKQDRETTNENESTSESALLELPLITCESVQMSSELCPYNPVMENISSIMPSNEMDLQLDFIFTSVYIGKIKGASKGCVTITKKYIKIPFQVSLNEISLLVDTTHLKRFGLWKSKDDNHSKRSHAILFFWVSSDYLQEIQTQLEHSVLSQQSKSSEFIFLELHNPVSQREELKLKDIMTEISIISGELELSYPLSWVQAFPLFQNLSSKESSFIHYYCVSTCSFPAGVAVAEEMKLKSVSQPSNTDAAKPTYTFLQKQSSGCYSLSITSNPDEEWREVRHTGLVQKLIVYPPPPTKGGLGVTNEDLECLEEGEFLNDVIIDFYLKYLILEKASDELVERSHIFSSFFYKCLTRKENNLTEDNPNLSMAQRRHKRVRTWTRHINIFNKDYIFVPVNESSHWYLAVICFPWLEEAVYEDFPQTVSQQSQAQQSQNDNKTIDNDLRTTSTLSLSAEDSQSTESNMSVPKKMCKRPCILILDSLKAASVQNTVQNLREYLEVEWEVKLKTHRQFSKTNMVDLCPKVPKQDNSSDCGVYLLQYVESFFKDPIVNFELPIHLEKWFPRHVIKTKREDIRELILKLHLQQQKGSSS

[3] = molecular target: T4, Tyrosyl-DNA phosphodiesterase 2 (Homo sapiens, UniProt O95551); assay: potency against TDP2 phosphodiesterase activity – biochemical, epi absorbance, IC50, dose response (AID 743297)
T4 sequence (O95551 whole entry): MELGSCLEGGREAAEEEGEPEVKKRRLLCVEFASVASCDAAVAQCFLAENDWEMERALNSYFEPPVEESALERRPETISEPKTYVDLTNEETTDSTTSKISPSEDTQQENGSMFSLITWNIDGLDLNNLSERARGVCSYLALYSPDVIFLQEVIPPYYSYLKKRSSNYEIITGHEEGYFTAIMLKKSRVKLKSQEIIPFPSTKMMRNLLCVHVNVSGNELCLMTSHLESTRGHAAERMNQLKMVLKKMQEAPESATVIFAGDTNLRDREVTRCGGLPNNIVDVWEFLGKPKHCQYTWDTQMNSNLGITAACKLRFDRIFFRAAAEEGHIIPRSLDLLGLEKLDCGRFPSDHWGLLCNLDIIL

[4] = tested on: Streptococcus sp. 'group A'; assay: Streptococcus pyogenes SK(-)GAS viability under kanamycin – luminescence, BacTiterGlo, confirmation, counter-screen for streptokinase expression inhibitor project, dose response (AID 1900); assay type: functional, organism-based

| Compound | IC50 [1] | EC50 (Protein RecA) | AC50 (INS1) | IC50 [2] | IC50 [3] | EC50 [4] |
| --- | --- | --- | --- | --- | --- | --- |
| Cn1nc(-c2ccc(Cl)cc2)nc2c(=O)n(C)c(=O)nc1-2 | 24.7 µM (not active) | 0.0305 µM (active) | 0.441 µM (active) | – | – | – |
| SC1=Nc2ccccc2C1 | 14.9 µM (not active) | 1.66 µM (active) | – | – | – | – |
| NS(=O)(=O)c1ccc(NC(=O)COC(=O)c2ccc([N+](=O)[O-])s2)cc1 | – | – | – | 7.78 µM (active) | 32.2 µM (inactive) | – |
| CCCCNc1cc(NC(C)=O)cc2cc(OC)c(OC)cc12 | – | – | – | 19.9 µM (active) | 87.5 µM (inactive) | – |
| COc1ccc(C(NC(=O)C(C)C)c2ccc3cccnc3c2O)cc1 (configuration not stated) | – | – | 0.65 µM (active) | – | – | 7.99 µM (active) |
| O=C(Cc1ccc([N+](=O)[O-])cc1)N/N=C/c1ccc([N+](=O)[O-])o1 | – | – | – | – | – | 11.9 µM (active) |
